For 61 molecules, melting point results are on record in a melting point compilation (Tetko et al.; mined from patent text by program, amines drawn as free bases though some values may be those of a salt).

Each structure is given as a SMILES string.

Usually melting point stands for the temperature of the solid-liquid transition.

For the molecule `CCc1cccc(CC)c1NC(=O)NC1(c2ccccc2)CCCC1`, the melting point is 215 to 218 °C.

On to `CC1(C)Cc2c(c(N3CCOCC3)nc3sc4c(N(CCO)CCN5CCOCC5)ncnc4c23)CO1`, for which the melting point was 112 to 113 °C.

`CC(C)(C)c1cc(CCc2ccccc2NC(=O)NCc2cccnc2)cc(C(C)(C)C)c1O` displayed a melting point of 163 to 164 °C.

On to `CC1(C)CC[C@@H](C(=O)O)[C@@H]1SC(=O)c1ccccc1` (relative stereo), for which the melting point was 131 °C.

Molecule `CC(C)CCOc1ccc2sc(C(=O)O)cc(=O)c2c1` showed a melting point of 208 to 209 °C.

`CCOc1ccc(OCc2ccccc2)c(C(=O)OC)n1` registered a melting point of 45 to 46 °C.

Take `O=[N+]([O-])c1cccc(-c2cnc3[nH]c4ccccc4c3c2)c1`: the melting point is > 220 °C.

`Cc1noc(-c2cc3c4ccccc4n(C)c3s2)n1` had a melting point of 200 to 201 °C.

For the molecule `CCCCc1c(/C=C/C(=O)O)cc(OC)c2ccccc12`, the melting point was 166 to 167 °C.

Turning to `CN(SC(C)(C)C(=O)c1ccccc1)C(=O)ON=C1SC(C)(C)C(=O)N1C`, the melting point was in the range of 98 to 100 °C.

With `COc1ccc(C(=O)Nc2ccc(F)cc2F)cc1N`, the melting point is 166 to 168 °C.

Turning to `NC(=O)c1ccc2c(c1)C(=C(Cl)Cl)OC(=C(Cl)Cl)O2`, the melting point was 217 to 218 °C.

Regarding `NC(=O)c1cc(-n2cncn2)ccc1N`, the melting point was 216 to 218 °C.

Take `CCn1ncc(C(=O)c2ccc(S(C)(=O)=O)c(OCCOC)c2Cl)c1O`: the melting point lay in the range of 159 to 160 °C.

On to `O=C(Nc1ccncn1)NN1CC=CCC1`, for which the melting point was 188 °C.

`Fc1cccc(F)c1C1=NCC(=S)Nc2ccc(Cl)cc21` had a melting point of 222 to 224 °C.

For the molecule `Cc1cccc(-n2nc(C)c3c(Cl)c4ccccc4nc32)n1`, the melting point came to 154 °C.

`CN(C)C=Nc1cccc2nc(N3CCN(C)CC3)c(N3CCN(C)CC3)nc12` had a melting point of 183 to 186 °C.

Turning to `CC(CC(=O)O)C(=O)c1ccc2c(c1)OCC(=O)N2` (stereo unspecified), the melting point lay within 170 to 172 °C.

For `Oc1ccc(C2=C(c3ccccc3)CCCc3cc(OC4CCCCO4)ccc32)cc1` (stereo unspecified), the melting point lay within 183 to 185 °C.

`CC(=O)NC[C@H]1CN(c2ccc(C3=CCCCO3)c(F)c2)C(=O)O1` came in with a melting point of 161 to 163 °C.

Molecule `O=C(c1ccc(O)cc1)c1c(F)c(F)c(F)c(F)c1F` displayed a melting point of 138 to 140 °C.

For `COc1cc(OC)c(C(=O)C=CC(=O)O)cc1OC`, the melting point was in the range of 207 to 208 °C.

`C=CC(C)(C)C(O)(COc1ccc(-c2ccccc2)cc1)Cn1ccnc1` (stereo unspecified) registered a melting point of 151 to 153 °C.

With `Nc1nc2c(s1)CCN(CCCCCc1ccccc1)CC2`, the melting point fell in the range of 102 to 105 °C.

`CCCCCCc1cc2c(s1)-n1c(C)nnc1CN=C2c1ccc(C)cc1`: the melting point fell in the range of 74 to 76 °C.

`CC(=O)OCCCOc1ccc([N+](=O)[O-])c(C=C2NC(=O)NC2=O)c1` showed a melting point of 94 to 130 °C.

As for `COCc1cn2c(C)c(C)nc2c(O)c1CCC(=O)c1ccccc1`, the melting point lay in the range of 167 to 168 °C.

On to `CC(C)(C(=O)O)n1c(=O)[nH]c2cc(Cl)ccc2c1=O`, for which the melting point lay within 260 to 263 °C.

For `C[C@H]1c2cc(F)ccc2-c2ccccc2N1S(=O)(=O)c1ccc(O)cc1`, the melting point was determined as 193 °C.

For `CC(C)c1cccc(F)c1NC(=S)NN`, the melting point is 122 to 124 °C.

In turn, `CN(C)C(=O)c1ccc(-c2ccc3nnn(Cc4ccc5ncccc5c4)c3n2)cc1F` showed a melting point of 163 to 165 °C.

Regarding `CCOC(=O)c1cn(C)c2cc(OC)ccc2c1=O`, the melting point is 198 to 200 °C.

As to `CON1C(=O)[C@@H](NC(=O)OC(C)(C)C)[C@@H]1C1CCCCC1` (relative stereo), the melting point was 110 to 112 °C.

In the case of `Cn1cncc1C(O)(c1ccc(Cl)cc1)c1ccc2[nH]c(=O)cc(-c3cccnc3)c2c1` (stereo unspecified), the melting point is > 250 °C.

With `COc1cc(OC)c(C23CC4CC(CC(C4)C2)C3)cc1C(=O)Oc1ccc(C(=O)O)cc1`, the melting point was in the range of 236 to 238 °C.

Turning to `O=C(O)C(=O)c1ccc(OCCOc2ccccc2)cc1`, the melting point was in the range of 102 to 103 °C.

For `CNC(=O)c1cccc(F)c1Nc1nc(Nc2ccc3c(c2)C(C)(C)CCC(=O)N3)ncc1Cl`, the melting point came out at 153 °C.

In turn, `Nc1nc2c(s1)CCN(CC1=Cc3ccccc3CC1)CC2` came in with a melting point of 158 to 160 °C.

`CCOc1nc2c(C)sc(C(=O)OC)c2n1Cc1ccc(-c2ccccc2C#N)cc1` yielded a melting point of 155 to 156 °C.

For `CC(Oc1ncnc2ccccc12)c1ccc(C(C)(C)C)cc1` (stereo unspecified), the melting point fell in the range of 85 to 86 °C.

Consider `Nc1cc(N2C(=O)c3ccccc3C2=O)c(F)cc1Cl`, for which the melting point was 148 °C.

`CCCC(CCC)(CCC)C(=O)O` displayed a melting point of 67 °C.

Molecule `CCCCCCCN(CCCCCCCCSc1nc(-c2ccccc2)c(-c2ccccc2)[nH]1)C(=O)Nc1ccc(F)cc1F` had a melting point of 89 to 91 °C.

With `CC1(C)CC(OC(=O)c2ccccc2)CC(C)(C)N1CC#N`, the melting point worked out at 147 °C.

Take `Cn1cc(-c2ncc(-c3ccc4cc(OC(Cc5ccccc5)C(=O)O)ccc4c3)o2)c2ccccc21` (stereo unspecified): the melting point was 149 to 151 °C.

Consider `COc1ccc(-c2cc(=S)n(Cc3ccc(F)cc3F)nc2-c2ccc(OC)cc2)cc1`, for which the melting point is 175 to 176 °C.

Regarding `CC(C)(S)C(O)(Cn1cncn1)c1ccc(F)cc1F` (single isomer, unassigned; (-)), the melting point is 105 °C.

In turn, `COc1c(-c2cc3c(s2)CCC(CO)=C3)ccc2c(=O)c(C(=O)O)cn(C3CC3)c12` had a melting point of 205 to 206 °C.

`CC(C)(C)c1ccc(OCC(=O)NCc2ccc(NS(C)(=O)=O)c(O)c2)cc1` gave a melting point of 112 °C.

For the molecule `CCCCC(C(=O)OCC)c1ccc(N2Cc3ccccc3C2=N)cc1` (stereo unspecified), the melting point was 140 to 142 °C.

Take `CONC(=O)Nc1ccc(-c2sc3c(c2CN(C)C(C)c2ccccc2)c(=O)n(-c2ccccn2)c(=O)n3Cc2c(F)cccc2F)cc1` (stereo unspecified): the melting point was in the range of 168 to 170 °C.

`COc1ccc(NC(=O)N[C@H]2C[C@@](N)(C(=O)O)[C@@H]3[C@@H](C(=O)O)[C@@H]32)cc1` (relative stereo): the melting point is > 250 °C.

For `COC(=O)c1ccc(-c2nc(COc3ccc(CO)cc3OC)c(C)o2)cc1`, the melting point was in the range of 170 to 171 °C.

In turn, `ClCc1ccc(OCc2ccc3ccccc3n2)nc1` gave a melting point of 118 to 119 °C.

Turning to `Cc1c(NC(=O)CC(C)(C)C)cc2c(c1C)OC(C)(C)C2Nc1ccccc1OC(F)(F)F` (stereo unspecified), the melting point lay in the range of 196 to 197 °C.

Turning to `COC(=O)CCc1ccc(OCCC2Oc3ccccc3N(Cc3cccc(Cl)c3)C2=O)cc1` (stereo unspecified), the melting point was in the range of 88 to 89 °C.

With `CN(C(=O)c1ccc2c(c1)nc(NC(=O)c1cccs1)n2CCCC(=O)O)C1CCCCC1`, the melting point lay within 256 to 258 °C.

In the case of `Cc1cc(SC2=C(O)CC(CCc3ccc(O)cc3)(c3ccccc3)OC2=O)c(C(C)(C)C)cc1CO` (stereo unspecified), the melting point is 199 to 201 °C.

On to `CC(C)(Sc1cc(C(C)(C)C)c(O)c(C(C)(C)C)c1)Sc1cc(C(C)(C)C)c(OCC[C@H](O)CO)c(C(C)(C)C)c1`, for which the melting point fell in the range of 110 to 112 °C.

Molecule `CC(O)CSc1sc(-c2cc[nH]n2)c2c1C(=O)CC(C)(C)C2` (stereo unspecified) came in with a melting point of 175 to 178 °C.
